Earlier results in patent US20170101350A1, “SYNTHETIC ACID COMPOSITIONS AND USES THEREOF” (priority 2014, published 2017).

Conditions: death in 2-3 minutes

Compound: Cl [hydrogen chloride gas, hydrogen chloride]
- levels at which death can occur: 1300-2000 ppm
